In patent publication US10092566B2, “Composition for controlling a gut immunity and use thereof” (SEOUL NATIONAL UNIVERSITY R&DB FOUNDATION, priority 2013, dated 2018):

Tests used:
IMD pathway = assay: Gut IMD pathway activation (Cec expression, qPCR); type: in vivo, Drosophila; details: uracil 20 nM, 4 hours
Description: Fluorescent RT-PCR was conducted to quantify gene expression and double-stranded DNA dye and SYBR green (Perkin Elmer, Waltham, Mass., USA) were used. To detect target gene trascriptomes, Cecropin (Sense, 5′-ATGAACTTCTACAACATCTTCG-3′ (SEQ ID NO: 5); Antisense, 5′-GGCAGTTGCGGCGACATTGGCG-3′ (SEQ ID NO: 6)), Diptericin (Sense, 5′-GGCTTATCCGATGCCCGACG-3′ (SEQ ID NO: 7); Antisense, 5′-TCTGTAGGTGTAGGTGCTTCCC-3′ (SEQ ID NO: 8)), and DUOX (Sense, 5′-GCTGCACGCCAACCACAAGAGACT-3′ (SEQ ID NO: 9); Antisense, 5′-CACGCGCAGCAGGATGTAAGGTTT-3′ (SEQ ID NO: 10)) were used, and as a control group, Rp49 (Sense, 5′-AGATCGTGAAGAAGCGCACCAAG-3′ (SEQ ID NO: 11); Antisense, 5′-CACCAGGAACTTCTTGAATCCGG-3′ (SEQ ID NO: 12)) was used. SYBR green analysis was conducted by an ABI PRISM 7700 system (PE Applied Biosystems, Foster City, Calif., USA) according to the manufacturer's instructions. All of the samples were repeated three times and analyzed, and a detected amount of mRNA was normalized with mRNA in the control group. Normalized data was used to quantify the relative amount of mRNA according to cycling threshold analysis. Targeted gene expression was expressed as the relative amount of expression.

Ce-DUOX1 = assay: ROS (DUOX-dependent H2O2) measurement in C. elegans; type: in vivo; details: uracil-containing media, 2 hours
Text: C. elegans were raised and maintained as disclosed in the previous research (Chavez et al., Infect Immun 77, pp. 4983-4989, 2009). As disclosed in the previous research, L1 nematodes were fed with bacteria containing Ce-DUOX1-RNAi vectors throughout the step L4 to introduce Ce-DUOX1-RNAi (Chavez et al., Infect Immun 77, pp. 4983-4989, 2009). Standard feeding system RNAi process using Ce-DUOX1-RNAi may cause a developmental disability which indicates a serious level of mortality. As disclosed in the previous research, to give a partial knock-down effect, Ce-DUOX1-RNAi bacteria were mixed with bacteria containing control RNAi at a ratio of 1:70. In the early adult stage, nematodes were obtained and washed with M9 minimal media. Nematodes (about 200 to 300 individuals) were placed in a 96-well plate comprising uracil-containing media ([…]) at 20° C. for 2 hours.
DUOX-dependent H2O2, as basically disclosed in the previous research (Chavez et al., Infect Immun 77, pp. 4983-4989, 2009), was measured at room temperature for 2 hours following addition of […] of Amplex UltraRed solution (Invitrogen) and […] of reacting buffer including 0.2 units/mL of horseradish peroxidase (Sigma). Fluorescence of each sample was measured by fluorescent microplate readers at 530 nm of excitation wavelength and 590 nm of emission wavelength. […]

gut cells = details: in vivo
Description: To measure cell apoptosis in gut cells caused by a long-term exposure to uracil, genetically different germ-free adult Drosophila (5 to 6 days old) were maintained on the standard corn meal agar media with a supplemental 1 nM of uracil for 20 days.
Midguts of female Drosophila (20 days old) collected above were used for the analysis of cell apoptosis. Midguts were dissected in PBS, and cell apoptosis analysis was conducted by terminal deoxynucleotidyl transferase (TdT)-mediated dUDP nick end labeling method as disclosed in the previous research (Ryu et al., Science 319, pp. 777-782, 2008).
The cell apoptotic index was indicated by dividing the number of apoptotic cells with respect to the total number of cells and multiplying the value by 100.
E. carotovora-pyrE::Tn5 = assay: Bacterial persistence in the midgut (CFU); type: in vivo, Erwinia carotovora; details: coingestion of 1 nM uracil with E. carotovora-pyrE::Tn5; CFU 6 hours after ingestion
Description: To measure gut sustainability of E. carotovora strains (E. carotovora, E. carotovora-pyrE::Tn5, and E. carotovora-pyrE::Tn5-pyrE), a 5% sucrose solution containing approx. 10^10 cells of E. carotovora strains were orally administered to female adult Drosophila (5 to 6 days old) for 2 hours. Midguts were dissected at 6 hours after ingestion. Midguts, posterior guts, and crops of which the surfaces were sterilized were homogenized and diluted accordingly. These were smeared on a Luria-Bertani agar plate, and some of colony-forming units (CFUs) were obtained from each midgut. During the recovery experiment, the coingestion of E. carotovora-pyrE::Tn5 (+uracil) and 1 nM of uracil or the expression of an E. carotovora-pyrE::Tn5 strain, which was genetically recovered by the expression of functional pyrE genes (+pyrE), was utilized.

Upd3-JAK-STAT pathway = assay: Epithelial cell renewal program and Upd3-JAK-STAT reporter analysis; type: in vivo, Drosophila
Description: To examine a renewal program for epithelial cells, a 5% sucrose solution containing 20 nM of uracil (for 16 hours) or different bacteria (approx. 5×10^8 cells; E. carotovora, E. carotovora-pyrE::Tn5 and E. carotovora-pyrE::Tn5-pyrE for 22 hours) was orally administered to genetically different adult Drosophila (5 to 6 days old). For the recovery experiment, Drosophila coingested URA− strain (E. carotovora-pyrE::Tn5) and 1 nM of uracil. Following the dissection of the gut, the gut was treated with primary antibodies [anti-phospho-histone H3 (1:2000 dilution; Millipore), anti-LacZ (1:1000 dilution; Cappel), or anti-Prospero (1:100 dilution; Developmental Studies Hybridoma Bank)]. Then, the gut was treated with secondary antibodies (Alexa Fluor 568 goat anti-rabbit IgG or Alexa Fluor 488 goat anti-murine IgG (Invitrogen)). DAPI was used for nuclear staining.
Drosophila containing esg-GAL4> UAS-GFP were used to analyze ISC proliferation and differentiation. A 5% sucrose solution containing 20 nM of uracil (for 16 hours) or different bacteria (E. carotovora, E. carotovora-pyrE::Tn5, and E. carotovora-pyrE::Tn5-pyrE, approx. 5×10^8 cells, for 22 hours) was orally administered to Drosophila (5 to 6 days old). For the recovery experiment, Drosophila coingested a URA− strain (E. carotovora-pyrE::Tn5) and 1 nM of uracil. […]

O=c1cc[nH]c(=O)[nH]1 [uracil]
gut IMD pathway activation leading to AMP production (IMD pathway): unable to activate the gut IMD pathway | DUOX-dependent ROS generation in C. elegans (Ce-DUOX1): able to activate DUOX-dependent ROS generation | gut cell apoptosis after long-term ingestion of uracil (gut cells): Extensive apoptosis in gut cells | prolonged midgut persistence of URA− pathogens (E. carotovora-pyrE::Tn5): abolished | restoration of infection-induced Upd3-JAK-STAT signaling, ISC proliferation, differentiation and enteroblast accumulation (Upd3-JAK-STAT pathway; coingestion of 1 nM uracil with URA− strain E. carotovora-pyrE::Tn5): sufficient to restore | Upd3-JAK-STAT pathway activation and epithelial cell renewal by uracil ingestion alone (Upd3-JAK-STAT pathway; uracil 20 nM, PLCβ-dependent): sufficient to trigger
